Entries after “also recorded” stand apart in the source; their conditions may differ.

Series [1] in a line: Element concentrations in kidney samples of treated rats. Conditions: rat kidney; cisplatin single iv 6.5 mg/kg; CV247 oral 3 ml/kg bd, fourteen days. It is filed as in vivo. From the text:
Liver and kidney samples were subsequently examined to see if CV 247 protected the rats from the accumulation of platinum and platinum free radicals, and what kind of metal ion concentration changes occur after treatment.

Series [2] has as its system HCT 8 and T47D cell lines. Description: MTT, SRB and CVE assays with exposure of up to 10 days. Type of series: cell-based. Conditions: 18000 and 26000 cells/well. From the text:
Graphs depicting the results obtained are shown in FIGS. 6 to 11 (it should be noted that some graphs have the x axis displaying cancer cell kill, whilst others display cancer cell viability).

In series [1], `N.N.[Cl][Pt][Cl]` [Cisplatin, cis-diamminedichloroplatinum] yielded a Pt of 3.048 ± 0.583. Besides, the “effect on cancer cell kill / viability at cisplatin dose of 1 mg” value in series [2] (cisplatin 1 mg alone or with CV247) is on record as “only a marginal long term benefit; also recorded: effect after 4 days was often reduced”. In series [2] (high doses of cisplatin, CV247 alone), the “effect on cancer cell kill / viability” value was “cytotoxic”.

(Values after US20110135755A1, “Combination therapies for treating neoplastic disease” (priority 2009, published 2011).)
